Measured values taken from patent US9102697B2, “Trioxacarcins and uses thereof” (President and Fellows of Harvard College, priority 2010, dated 2015).

System: self-complementary duplex 12-mer d(AATTACGTAATT) (SEQ ID NO: 1)
Assay: DNA alkylation detected by non-denaturing DNA-gel electrophoresis with in-gel fluorescence
Format: biochemical
Settings: for alkylation / modification of the DNA duplex: 12-mer duplex with single central G residue, gel in-gel fluorescence and LC-MS; for fluorescent complex with the oligonucleotide detected: two-hour reaction at 23 °C
Source text: Two independent techniques were used to evaluate the reactivity of the synthesized trioxacarcins towards d(AATTACGTAATT) (SEQ ID NO: 1). The first technique involved detecting alkylated DNA oligonucleotides by in-gel fluorescence with non-denaturing DNA-gel electrophoresis. The second technique involved detecting alkylated DNA oligonucleotides using a liquid chromatography-mass spectrometry method.
We began the DNA-alkylation studies by evaluating the activity of DC-45-A2 towards the self-complementary 12-mer d(AATTACGTAATT) (SEQ ID NO: 1) in pH 7 phosphate buffer at different concentrations (FIG. 10). The concentration of the oligonucleotide was held constant at 100 μM while DC-45-A2 was used at five different concentrations ranging from 1 μM to 1000 μM (lanes 4-8) in five separate reactions. At the highest concentrations of DC-45-A2 (500 μM and 1000 μM), a second and distinct fluorescent complex was observed by in-gel fluorescence. […] Chem. 390, 1139 (2008). After incubation for 3 h at 23° C., aliquots of the reactions mixtures were loaded onto a 20% crosslinked polyacrylamide gel. After electrolution, the gels were visualized using an alpha imager, first by irradiating the gel at 302 nm to image fluorescent species in the gel (in-gel fluorescence) and then by treating the gel with ethidium bromide and again irradiating at 302 nm to image fluorescent species in the treated gel. The fluorescence quantum efficiency of an ethidium bromide molecule increases 20- to 25-fold upon intercalation into duplex DNA: J.-B. Le Pecq, C. Paoletti, Anal. Biochem. 17, 100 (1966).
Next, we compared the reactivity of DC-45-A2 to both iso-DC-45-A2 and dideoxy-DC-45-A2 towards the same oligonucleotide in three separate alkylation experiments (FIG. 11).
Having noted the apparent differential reactivity between DC-45-A2 and dideoxy-DC-45-A2, we performed an experiment to visualize the formation of the fluorescent complex at different reaction times (FIG. 12). The reaction of the oligonucleotide with DC-45-A2 reached an approximate maximum of fluorescence intensity between 5 and 10 h, while the reaction of the oligonucleotide with dideoxy-DC-45-A2 reached a maximum fluorescence intensity between 1 and 4 h.
Seven vials (designated vials 1 and vials 3-8) were loaded with alkylation buffer (86.7 μL, see above for preparation). A solution of duplex oligonucleotide d(AATTACGTAATT) (SEQ ID NO: 1) (1.07 mM [concentration of the DNA duplex] in alkylation buffer [see above for preparation], 9.34 μL, 10 nmol, 1 equiv) was added to vials 3-8. Dimethylsulfoxide was added in the following amounts to vials 3-7 (vial 3, 4.00 μL; vial 4, 3.80 μL; vial 5, 3.00 μL; vials 6-7, 2.00 μL). Solutions of DC-45-A2 in dimethylsulfoxide was added to vial 1 and vials 4-8 at the following concentrations and amounts (vial 1, 25 mM solution of DC-45-A2, 4.00 μL; vial 4, 5 mM solution of DC-45-A2, 0.20 μL; vial 5, 5 mM solution of DC-45-A2, 1.00 μL; vial 6, 5 mM solution of D-45-A2, 2.00 μL; vial 7, 25 mM solution of DC-45-A2, 2.00 μL; vial 8, 25 mM solution of DC-45-A2, 4.00 μL). The samples were vortexed, then rotated end-over-end at 23° C. After 2 h, four vials (designated vials 9-12) were prepared containing the following (vial 9, an aliquot of the solution from vial 3 [18.0 μL], DNase I enzyme solution [2.00 μL, Invitrogen 18047-019]; vial 10, an aliquot of the solution from vial 3 [20.0 μL]; vial 11, an aliquot of the solution from vial 5 [18.0 μL], DNase I enzyme [2.00 μL, Invitrogen 18047-019]; vial 12, an aliquot of the solution from vial 5 [20.0 μL]. Vials 9 and 11 were rotated end-over-end at 23° C. for 1 h. Vials 10 and 12 were heated at 95° C. for 15 min. To a final vial (designated vial 2) was added a 10-bp DNA ladder (4 μL, Invitrogen 10821-015) and alkylation buffer (16.0 μL). Vials 2 and 9-12 were diluted with loading buffer (5.00 μL, see above for preparation). A 20-μL aliquot was removed from vials 1 and 3-8. […]

Molecule	alkylation / modification of the DNA duplex (23 °C)	alkylation / modification of the DNA duplex (23 °C, listed as Iso-DC-45-A2)	rate of alkylation of the DNA duplex (23 °C)	efficiency of alkylation of the DNA duplex (23 °C, compared with DC-45-A2)	signal intensity of the fluorescent complex (compound and DNA 100 μM, 2 h at 23 °C, compared with DC-45-A2)	fluorescent complex with the oligonucleotide detected (compound and DNA 100 μM)	alkylation / modification of the DNA duplex (23 °C, listed as 1)	stability of the fluorescent DNA complex to heating (reaction mixture heated at 95 °C for 15 min)
COc1c2c(c(O)c3c4c(c(C)cc13)[C@H]1O[C@]3(C(OC)OC)O[C@H]1[C@](O)(O4)[C@@]31CO1)C(=O)[C@@H](O)C[C@@H]2O [iso-DC-45-A2, 11,12,13,15-tetraepi-DC-45-A2]	unreactive	not observed to modify	–	–	–	–	–	–
Dideoxy-DC-45-A2	found to modify	–	within minutes	apparently greater efficiency	more intense signal	clearly detected	–	–
DC-45-A2	found to modify	–	half life of hours	–	–	clearly detected	readily alkylated	destroyed
